In PubChem BioAssay (NCI):
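1) Cells in 96-well plates. 2) Compound, 48 h, 5 concentrations. 3) Linear interpolation between surrounding doses. 4) Unreached endpoint = highest concentration. TGI is the concentration that stops growth completely.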

Legend:
Assay in all cases: growth of human tumour cells (NCI), 48 h
[1] = tested on: SF-268 CNS
[2] = tested on: BT-549 breast
[3] = tested on: MDA-N
[4] = tested on: NCI-H226 lung
[5] = tested on: CCRF-CEM leukemia
[6] = tested on: HOP-92 NSCLC
[7] = tested on: COLO 205 colon
[8] = tested on: HT29 colon
[9] = tested on: HL-60(TB) leukemia
[10] = tested on: 786-0 renal
[11] = tested on: SW-620 colon
[12] = tested on: MCF7 breast
[13] = tested on: SK-MEL-28 melanoma
[14] = tested on: HOP-62 NSCLC
[15] = tested on: M14 melanoma
[16] = tested on: PC-3 prostate
[17] = tested on: T-47D breast
[18] = tested on: HCT-15 colon
[19] = tested on: U251 CNS
[20] = tested on: HS 578T breast
[21] = tested on: UO-31 renal
[22] = tested on: IGROV1 ovarian
[23] = tested on: UACC-257 melanoma
[24] = tested on: SK-OV-3 ovarian
[25] = tested on: RPMI-8226 leukemia
[26] = tested on: NCI/ADR-RES ovarian
[27] = tested on: MDA-MB-435
[28] = tested on: NCI-H522 lung
[29] = tested on: SK-MEL-2 melanoma
[30] = tested on: MDA-MB-231 breast
[31] = tested on: NCI-H460 lung
[32] = tested on: OVCAR-4 ovarian
[33] = tested on: HCT-116 colon
[34] = tested on: NCI-H23 lung
[35] = tested on: DU-145 prostate
[36] = tested on: OVCAR-5 ovarian
[37] = tested on: OVCAR-3 ovarian
[38] = tested on: SN12C renal
[39] = tested on: KM12 colon
[40] = tested on: A498 renal
[41] = tested on: LOX IMVI melanoma
[42] = tested on: SNB-75 CNS
[43] = tested on: RXF 393 renal
[44] = tested on: K-562 leukemia
[45] = tested on: OVCAR-8 ovarian
[46] = tested on: SR leukemia
[47] = tested on: MALME-3M melanoma
[48] = tested on: MOLT-4 leukemia
[49] = tested on: SF-295 CNS
[50] = tested on: SNB-19 CNS
[51] = tested on: CAKI-1 renal
[52] = tested on: UACC-62 melanoma
[53] = tested on: A549 NSCLC
[54] = tested on: HCC-2998 colon
[55] = tested on: EKVX NSCLC
[56] = tested on: SK-MEL-5 melanoma
[57] = tested on: TK-10 renal
[58] = tested on: ACHN renal
[59] = tested on: SF-539 CNS

`COC1C=C(NCC2(CO)CCC2)NC(N)=N1` (configuration not stated) was tested, and the TGI [1] was over 100 µM, the TGI [2] was over 100 µM and the TGI [3] was over 100 µM. The TGI [4] was over 100 µM, the TGI [5] was over 100 µM and the TGI [6] was over 100 µM. For the same compound, the TGI [7] was over 100 µM, the TGI [8] was over 100 µM and the TGI [9] was over 100 µM. The TGI [10] was over 100 µM, the TGI [11] was over 100 µM and the TGI [12] was over 100 µM. The TGI [13] was over 100 µM, the TGI [14] was over 100 µM and the TGI [15] was over 100 µM. The TGI [16] was over 100 µM, the TGI [17] was over 100 µM and the TGI [18] was over 100 µM. The TGI [19] was over 100 µM, the TGI [20] was over 100 µM and the TGI [21] was over 100 µM. The TGI [22] was over 100 µM, the TGI [23] was over 100 µM and the TGI [24] was over 100 µM. It also gave a TGI [25] of over 100 µM, a TGI [26] of over 100 µM and a TGI [27] of over 100 µM. It also gave a TGI [28] of over 100 µM, a TGI [29] of over 100 µM and a TGI [30] of over 100 µM. The TGI [31] was over 100 µM, the TGI [32] was over 100 µM and the TGI [33] was over 100 µM. The TGI [34] was over 100 µM, the TGI [35] was over 100 µM and the TGI [36] was over 100 µM. The TGI [37] was over 100 µM, the TGI [38] was over 100 µM and the TGI [39] was over 100 µM. The TGI [40] was over 100 µM, the TGI [41] was over 100 µM and the TGI [42] was over 100 µM. For the same compound, the TGI [43] was over 100 µM, the TGI [44] was over 100 µM and the TGI [45] was over 100 µM. The TGI [46] was over 100 µM, the TGI [47] was over 100 µM and the TGI [48] was over 100 µM. The TGI [49] was over 100 µM, the TGI [50] was over 100 µM and the TGI [51] was over 100 µM. For the same compound, the TGI [52] was over 100 µM, the TGI [53] was over 100 µM and the TGI [54] was over 100 µM. For the same compound, the TGI [55] was over 100 µM and the TGI [56] was over 100 µM.

Work on `c1ccc2c[n+](CCCCCCCCCC[n+]3ccc4ccccc4c3)ccc2c1` yielded a TGI [1] of over 10 µM, a TGI [2] of over 10 µM and a TGI [3] of over 10 µM. For the same compound, the TGI [57] was over 10 µM, the TGI [4] was over 10 µM and the TGI [5] was over 10 µM. For the same compound, the TGI [6] was over 10 µM, the TGI [7] was over 10 µM and the TGI [8] was over 10 µM. For the same compound, the TGI [9] was over 10 µM, the TGI [10] was over 10 µM and the TGI [11] was over 10 µM. For the same compound, the TGI [12] was over 10 µM, the TGI [13] was over 10 µM and the TGI [14] was over 10 µM. It also gave a TGI [15] of over 10 µM, a TGI [16] of over 10 µM and a TGI [17] of over 10 µM. For the same compound, the TGI [18] was over 10 µM, the TGI [19] was over 10 µM and the TGI [20] was over 10 µM. The TGI [21] was over 10 µM, the TGI [22] was over 10 µM and the TGI [23] was over 10 µM. For the same compound, the TGI [58] was over 10 µM, the TGI [24] was over 10 µM and the TGI [25] was over 10 µM. For the same compound, the TGI [26] was over 10 µM, the TGI [27] was over 10 µM and the TGI [28] was over 10 µM. It also gave a TGI [29] of over 10 µM, a TGI [30] of over 10 µM and a TGI [31] of over 10 µM. It also gave a TGI [32] of over 10 µM, a TGI [33] of over 10 µM and a TGI [34] of over 10 µM. For the same compound, the TGI [35] was over 10 µM, the TGI [36] was over 10 µM and the TGI [37] was over 10 µM. The TGI [38] was over 8.94 µM, the TGI [59] was over 10 µM and the TGI [39] was over 10 µM. It also gave a TGI [40] of over 10 µM, a TGI [41] of over 10 µM and a TGI [42] of over 10 µM. For the same compound, the TGI [43] was over 10 µM, the TGI [44] was over 10 µM and the TGI [45] was over 10 µM. The TGI [46] was over 10 µM, the TGI [47] was over 10 µM and the TGI [49] was over 10 µM. For the same compound, the TGI [50] was over 10 µM, the TGI [51] was over 10 µM and the TGI [52] was over 10 µM. It also gave a TGI [53] of over 10 µM, a TGI [54] of over 10 µM and a TGI [55] of over 10 µM. For the same compound, the TGI [56] was over 10 µM.

For `O=[N+]([O-])c1cc(Cl)cc2c1nc(NCCO)c1ccccc12`, the TGI [1] was over 100 µM, the TGI [2] was over 82.1 µM and the TGI [3] was over 100 µM. It also gave a TGI [57] of over 60.5 µM, a TGI [4] of over 80.2 µM and a TGI [5] of over 100 µM. For the same compound, the TGI [6] was over 88 µM, the TGI [7] was 0.236 µM and the TGI [8] was over 43 µM. For the same compound, the TGI [9] was over 56.2 µM, the TGI [10] was over 100 µM and the TGI [11] was over 100 µM. For the same compound, the TGI [12] was over 72.4 µM, the TGI [13] was over 100 µM and the TGI [14] was over 100 µM. The TGI [15] was over 100 µM, the TGI [16] was over 70.4 µM and the TGI [17] was over 100 µM. It also gave a TGI [18] of over 100 µM, a TGI [19] of over 100 µM and a TGI [20] of over 100 µM. For the same compound, the TGI [21] was over 100 µM, the TGI [22] was over 100 µM and the TGI [23] was 54.8 µM. It also gave a TGI [58] of over 100 µM, a TGI [24] of over 100 µM and a TGI [25] of over 100 µM. It also gave a TGI [26] of over 100 µM, a TGI [27] of over 100 µM and a TGI [28] of 62.9 µM. For the same compound, the TGI [29] was 43.8 µM, the TGI [30] was over 100 µM and the TGI [31] was 15.7 µM. For the same compound, the TGI [32] was over 100 µM, the TGI [33] was over 100 µM and the TGI [34] was over 80.9 µM. The TGI [35] was 15.9 µM, the TGI [36] was over 63 µM and the TGI [37] was over 100 µM. The TGI [38] was over 100 µM, the TGI [59] was over 100 µM and the TGI [39] was 93.7 µM. The TGI [40] was 56.4 µM, the TGI [41] was over 100 µM and the TGI [42] was over 81.7 µM. The TGI [43] was 19.3 µM, the TGI [44] was over 94 µM and the TGI [45] was over 100 µM. For the same compound, the TGI [46] was 7.09 µM, the TGI [47] was 57.1 µM and the TGI [48] was 34 µM. The TGI [49] was over 100 µM, the TGI [50] was over 100 µM and the TGI [51] was over 100 µM. For the same compound, the TGI [52] was over 60 µM, the TGI [53] was over 100 µM and the TGI [55] was over 100 µM. It also gave a TGI [56] of 3.96 µM.
